Structures can show the parent of a compound that is named as a salt.
Columns and labels:
CVA24 = assay: Viral yield reduction assay, CVA24; type: cell-based, Coxsackievirus A24 (clinical isolate); details: CVA24, RD cells
CVB4 (strain Powers) = assay: Viral yield reduction assay, CVB4; type: cell-based, Coxsackievirus B4 (CVB4; details: Vero cells
Vero cells = assay: Cytotoxicity assay (MTT) in Vero cells
Procedure: (§1) Permissive cells were seeded in 96-well plates in Eagle’s minimal essential medium (MEM) supplemented with 10% FBS. After 24 h, the medium was removed, and the wells were washed with saline. Compounds w [...

RD cells = assay: Cytotoxicity assay (MTT) in RD cells; type: cell-based; details: 24 h incubation with compound only
CVB5 = assay: Viral yield reduction assay, CVB5; type: cell-based, Coxsackievirus B5 (clinical isolate); details: CVB5, Vero cells
ECHO30 = assay: Viral yield reduction assay, ECHO30; type: cell-based, ECHO30 (clinical isolate); details: ECHO30, RD cells
CVA16 = assay: Viral yield reduction assay, CVA16; type: cell-based, Coxsackievirus A16 (clinical isolate); details: CVA16, RD cells
in vitro [1] = details: African green monkey; for CC50 at 24 h: Vero cells
Procedure: as §1

Coxsackie B3 virus = assay: microbe, parasite or virus in culture; type: cell-based, Coxsackievirus B3 (CVB3, strain Nancy); details: 24 h, Coxsackie B3 virus (Nancy, original), viral yield reduction in Vero cells
[2] = Antioxidant activity, DPPH assay; type: physicochemical; details: DPPH 200 μM in methanol, 30 min at 30 °C; vitamin C as reference; result in words
Procedure: Antioxidant activity was evaluated by spectrophotometric monitoring of the hydrogen transfer reaction with a stable chromogen radical, 2,2-diphenyl-1-picrylhydrazyl (DPPH, Sigma-Aldrich, St. Louis, MO, USA), using vitamin C (Vc) as described before. A solution of DPPH in methanol with a concentration of 200 μM was added to a solution of dihydrotetrazines in the same solvent (concentrations 5 to 50 μM). The reaction vessel (test tube) was wrapped in foil and kept for 30 min at 30 °C, and the optical density was measured at λ 517 nm (DPPH absorption maximum). The antioxidant activity (AO) was calculated by the formula AO = (1 − Atest/Acontr) × 100%, where Atest is the optical density of a solution containing a compound to be tested and DPPH, and Acontr is the optical density of a solution containing DPPH alone. The half-inhibitory concentration (IC50) corresponding to the reduction of the initial DPPH concentration by 50% was determined from the DPPH inhibition percentage plotted against concentrations of compounds 2 through 5 (Figure 1) using the OriginPro 8.5 program (OriginLab Corporation, Northampton, MA, USA) (Model DoseResp).

CVB3 virus = assay: Transmission electron microscopy of CVB3-infected Vero cells; details: MOI 100, 100 µM 1a, 3 h, TEM
Procedure: Vero cells in 6-well plates were incubated with CVB3 virus, MOI = 100, at 4 °C for 1 h. Unbound virions were removed by washing the cells twice with cold MEM; a medium containing 100 µM of 1a was added. […] Cells were incubated for 3 h at 36 °C in 5% CO2. In wells with control virus, MEM without 1a was added. After incubation, cells were collected from the wells, transferred into tubes, and centrifuged at 2000× g for 15 min. Cell pellets were fixed with 1.5% glutaraldehyde in PBS overnight, followed by post-fixation with 1.5% OsO4 for 1 h and uranyl acetate for 45 min at room temperature. They were then dehydrated in graded acetone and embedded in Epon/Araldit resin (Serva Feinbiochemica, Heidelberg, Germany). Thin sections (90 nm) were stained with lead citrate and examined in a JEM-100S electron microscope (JEOL, Tokyo, Japan).

CVB4 Powers = assay: Thermostability assay; set-up: species or system Coxsackievirus B4 (CVB4, strain Powers); details: compound 10 µg/mL, thermal gradient 37–55 °C for 2 min
Procedure: The thermostability assay was performed as described previously. The CVB4 strain was chosen because it is sensitive to the pleconaril used in this assay as a reference compound. The compound concentration used in the assay was selected according to the results of preliminary thermostability assays. Briefly, CVB4 Powers (10^4 TCID50) was pre-incubated with the compound (10 µg/mL), pleconaril (10 µg/mL), or an equal volume of MEM (virus control) for 30 min at +37 °C in sterile thin-walled 200 μl PCR-tubes (5 tubes per each treatment condition) in a BioRad CFX PCR-machine (BioRad Laboratories, Inc., Hercules, CA, USA). Then, a thermal gradient of 37–55 °C for 2 min, followed by rapid cooling to 4 °C, was applied. Subsequently, the infectious viral activities of the samples were quantified by end-point dilution assay.

Ad5 = assay: microbe, parasite or virus in culture; type: cell-based, human adenovirus type 5; details: Human mastadenovirus C, A549
HSV1 = assay: microbe, parasite or virus in culture; type: cell-based, herpes simplex virus type 1; details: Human alphaherpesvirus 1; HSV1, Vero cells, viral yield reduction
CVB3 WT = assay: microbe, parasite or virus in culture; type: cell-based, Coxsackievirus B3 (Nancy strain), passaged without 1a; details: Enterovirus B, CVB3, Vero
[3] = test system: Influenza A/Puerto Rico/8/34; assay: Viral yield reduction assay, influenza A; type: cell-based, Influenza A virus (strain A/Puerto Rico/8/1934 (H1N1)); details: Influenza A virus, Influenza A/Puerto Rico/8/34, MDCK cells
CVB3-WT and -R variants = assay: Growth kinetics of CVB3 WT and R variants with and without 1a; type: cell-based, Coxsackievirus B3; details: Vero cells, MOI 0.001, 1a 7 ug/mL, up to 72 h
in vitro [4] = details: dog
[5] = test system: Influenza B/Florida/04/06; assay: microbe, parasite or virus in culture; type: cell-based, influenza B virus (strain B/Florida/04/06, Yamagata lineage); details: MDCK
CVB4 = assay: Time-of-addition assay; type: cell-based, Coxsackievirus B4 (CVB4, strain Powers); details: CVB4 in Vero cells, 1a 5 μg/mL; for Interval of addition with highest inhibitory activity: pleconaril 10 μg/mL, titer at 8 h
SARS-CoV-2 = assay: Viral yield reduction assay, SARS-CoV-2; type: cell-based, SARS-CoV-2 virus (Wuhan strain); details: Severe acute respiratory syndrome coronavirus 2, SARS-CoV-2, Vero cells
CVB3 R = assay: microbe, parasite or virus in culture; type: cell-based, Coxsackievirus B3 (Nancy strain), passaged with 1a; details: Enterovirus B, CVB3, Vero
[6] = Cytotoxicity assay (MTT) in RD cells; type: cell-based; details: human, 24 h incubation with compound only
in vitro [7] = details: human

N=C(N)N [Guanidine hydrochloride, reference compound]
IC50 (CVA24): 314 ± 20.1 µM
IC50 (CVB4 (strain Powers)): 496 ± 26.5 µM
CC50 (Vero cells; 24 h incubation with compound only, MTT (Table 2)): > 5240 µM
CC50 (RD cells): > 10500 µM
IC50 (CVB5): 474 ± 33.4 µM
IC50 (ECHO30): 126 ± 18.2 µM
IC50 (CVA16): 337 ± 28.3 µM

CCC1N(c2nc3ccccc3s2)N=C(c2ccccc2)NN1c1ccc(OC)cc1 (stereo not shown) [Compound 3b]
CC50 at 24 h (in vitro [1]): 2330 ± 25.3 µM
IC50 (Coxsackie B3 virus; Enterovirus B, B3, Vero): 60.1 ± 7.2 µM

COc1ccc(N2CN(c3nc4ccccc4s3)N=C(c3ccccc3)N2)cc1 [Compound 1b]
CC50 at 24 h (in vitro [1]): > 1350 µM
IC50 (Coxsackie B3 virus; Enterovirus B, B3, Vero): 5.4 ± 1.1 µM
Antioxidant activity (DPPH assay) [2]: most pronounced antioxidant activity

C=CC1N(c2nc3ccccc3s2)N=C(c2ccccc2)NN1c1ccc(Cl)cc1 (stereo not shown) [Compound 4c]
CC50 at 24 h (in vitro [1]): > 291 µM
IC50 (Coxsackie B3 virus; Enterovirus B, B3, Vero): 27.9 ± 3.3 µM

C=CC1N(c2nc3ccccc3s2)N=C(c2ccccc2)NN1c1ccccc1 (stereo not shown) [Compound 4a]
CC50 at 24 h (in vitro [1]): > 315 µM
IC50 (Coxsackie B3 virus; Enterovirus B, B3, Vero): > 126 µM

Brc1ccc(N2CN(c3nc4ccccc4s3)N=C(c3ccccc3)N2)cc1 [Compound 1d]
CC50 at 24 h (in vitro [1]): 886 ± 90.4 µM
IC50 (Coxsackie B3 virus; Enterovirus B, B3, Vero): 6.2 ± 1.9 µM

CC1N(c2nc3ccccc3s2)N=C(c2ccccc2)NN1c1ccc(Br)cc1 (stereo not shown) [Compound 2e]
CC50 at 24 h (in vitro [1]): 69.1 ± 5.9 µM
IC50 (Coxsackie B3 virus; Enterovirus B, B3, Vero): > 69.1 µM

c1ccc(C2=NN(c3nc4ccccc4s3)CN(c3ccccc3)N2)cc1 [Compound 1a]
IC50 (CVA24; Enterovirus C): 0.9 ± 0.3 µM
Examined cells with no replication organelles visible (CVB3 virus): 47 out of 49
IC50 (CVB4 (strain Powers); Enterovirus B): 1.7 ± 0.5 µM
Thermostabilizing effect on virion (infectious particles after heating) (CVB4 Powers): no infectious particles were detected when heated above 45 degrees
IC50 (Ad5): 43.1 ± 3.8 µM
IC50 (HSV1): 46.3 ± 4.4 µM
IC50 (CVB3 WT): 0.48 µM
IC50 [3]: 38.7 ± 2.9 µM
Propagation of CVB3 strains in presence of 1a (CVB3-WT and -R variants): the resistant strain was able to effectively propagate in contrast to the wild-type virus
CC50 (in vitro [1]): 451 ± 51.2 µM
CC50 at 24 h (in vitro [1]): 620 ± 52.7 µM
IC50 (Coxsackie B3 virus): 1.8 ± 0.3 µM
IC50 (Coxsackie B3 virus; Enterovirus B, B3, Vero): 2.7 µM
CC50 (in vitro [4]): 850 ± 78.3 µM
IC50 [5]: 40.5 ± 5.1 µM
Inhibition of viral replication on late addition (CVB4; added later than 6 h after adsorption of the virus): Inhibition of viral replication was not observed
Interval of addition with highest inhibitory activity (CVB4): from −2 to 4 h post-infection
IC50 (SARS-CoV-2): 4.5 ± 1.2 µM
CC50 (Vero cells; SARS-CoV-2 row, 48 h or 24 h depending on virus life cycle, MTT): 656 ± 70.4 µM
IC50 (CVB3 R): 12.9 µM
CC50 at 24 h [6]: 673 ± 60.1 µM
IC50 (CVB5; Enterovirus B): 1.5 ± 0.3 µM
IC50 (ECHO30): 1.6 ± 0.4 µM
CC50 (in vitro [7]): 501 ± 45.7 µM
Antioxidant activity (DPPH assay) [2]: most pronounced antioxidant activity
IC50 (CVA16; Enterovirus A): 0.8 ± 0.2 µM

CCC1N(c2nc3ccccc3s2)N=C(c2ccccc2)NN1c1ccc(F)cc1 (stereo not shown) [Compound 3c]
CC50 at 24 h (in vitro [1]): 360 ± 41.7 µM
IC50 (Coxsackie B3 virus; Enterovirus B, B3, Vero): 71.9 ± 6.4 µM

CCc1ccc(N2NC(c3ccccc3)=NN(c3nc4ccccc4s3)C2C)cc1 (stereo not shown) [Compound 2c]
CC50 at 24 h (in vitro [1]): > 303 µM
IC50 (Coxsackie B3 virus; Enterovirus B, B3, Vero): > 121 µM

CC1N(c2nc3ccccc3s2)N=C(c2ccccc2)NN1c1ccccc1 (stereo not shown) [Compound 2a]
CC50 at 24 h (in vitro [1]): > 325 µM
IC50 (Coxsackie B3 virus; Enterovirus B, B3, Vero): 6.49 ± 0.8 µM

Clc1ccc(N2CN(c3nc4ccccc4s3)N=C(c3ccccc3)N2)cc1 [Compound 1c]
CC50 at 24 h (in vitro [1]): 321 ± 28.2 µM
IC50 (Coxsackie B3 virus; Enterovirus B, B3, Vero): 7.4 ± 2.2 µM

C=CC1N(c2nc3ccccc3s2)N=C(c2ccccc2)NN1c1ccc(I)cc1 (stereo not shown) [Compound 4d]
CC50 at 24 h (in vitro [1]): 1530 ± 17.2 µM
IC50 (Coxsackie B3 virus; Enterovirus B, B3, Vero): 51.6 ± 6.4 µM

CC1N(c2nc3ccccc3s2)N=C(c2ccccc2)NN1c1ccc(F)cc1 (stereo not shown) [Compound 2d]
CC50 at 24 h (in vitro [1]): 49.6 ± 3.7 µM
IC50 (Coxsackie B3 virus; Enterovirus B, B3, Vero): > 49.6 µM

COc1ccc(N2NC(c3ccccc3)=NN(c3nc4ccccc4s3)C2C)cc1 (stereo not shown) [Compound 2b]
CC50 at 24 h (in vitro [1]): 2050 ± 198 µM
IC50 (Coxsackie B3 virus; Enterovirus B, B3, Vero): 24.1 ± 3.2 µM

CCC1N(c2nc3ccccc3s2)N=C(c2ccccc2)NN1c1ccc(Br)cc1 (stereo not shown) [Compound 3e]
CC50 at 24 h (in vitro [1]): 946 ± 89.6 µM
IC50 (Coxsackie B3 virus; Enterovirus B, B3, Vero): > 210 µM

Cc1cc(CCCOc2c(C)cc(-c3noc(C(F)(F)F)n3)cc2C)on1 [Pleconaril, reference compound]
Thermostabilizing effect on virion (infectious particles after heating) (CVB4 Powers): had a thermostabilizing effect
CC50 at 24 h (in vitro [1]): 656 ± 58.4 µM
IC50 (Coxsackie B3 virus; Enterovirus B, B3, Vero): 15.2 ± 1.6 µM
Interval of addition with highest inhibitory activity (CVB4): between −2 and 0 h

C=CC1N(c2nc3ccccc3s2)N=C(c2ccccc2)NN1c1ccc(OC)cc1 (stereo not shown) [Compound 4b]
CC50 at 24 h (in vitro [1]): > 293 µM
IC50 (Coxsackie B3 virus; Enterovirus B, B3, Vero): > 117 µM

CCC1N(c2nc3ccccc3s2)N=C(c2ccccc2)NN1c1ccccc1 (stereo not shown) [Compound 3a]
CC50 at 24 h (in vitro [1]): > 313 µM
IC50 (Coxsackie B3 virus; Enterovirus B, B3, Vero): > 125 µM

Reference: article PMC11123948, “Leucoverdazyls as Novel Potent Inhibitors of Enterovirus Replication” (Pathogens, 2024)
